Data from patent publication US9232796B2, “Herbicidal compositions comprising 4-amino-3-chloro-5-fluoro-6-(4-chloro-2-fluoro-3-methoxyphenyl) pyridine-2-carboxylic acid or a derivative thereof and acetyl-CoA carboxylase (ACCase) inhibitors” (DOW AGROSCIENCES LLC, priority 2012, dated 2016).

Legend:
ECHCO = assay: Example V (second) postemergence foliar-applied ternary mixtures, greenhouse, direct seeded rice weeds; type: in vivo, Echinochloa colona (L.) Link; conditions: 17.5 gae/ha
Description: (§1) The treated plants and control plants were placed in a greenhouse as described above and watered by sub-irrigation to prevent wash-off of the test compounds. After approximately 3 weeks, the condition of the test plants as compared with that of the untreated plants was determined visually and scored on a scale of 0 to 100 percent where 0 corresponds to no injury or growth inhibition and 100 corresponds to complete kill.
(§2) Colby's equation was used to determine the herbicidal effects expected from the mixtures (Colby, S. R. 1967. Calculation of the synergistic and antagonistic response of herbicide combinations. Weeds 15:20-22.).
(§3) The following equation was used to calculate the expected activity of mixtures containing three active ingredients, A, B, and C: Expected=A+B+C−((A×B+A×C+B×C)/100)+(A×B×C/10000)

CYPIR = assay: as above; type: in vivo, Cyperus iria L.
Description: as §1, §2, §3

ECHCG [1] = assay: as above; type: in vivo, Echinochloa crus-galli (L.) Beauv.; conditions: 17.5 gae/ha
Summary of the method: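 Compound A (SC, acid equivalent), an ACCase inhibitor and a third herbicide were sprayed alone and as ternary mixtures postemergence at 187 L/ha with 1.25% v/v crop oil concentrate on greenhouse plants at the 1st–4th true leaf stage (29/26 °C day/night, ~14 h photoperiod). Injury was scored visually at ~3 weeks (0–100%) against untreated plants, and Colby's equation gave the expected mixture effects.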

SCPJU [2] = assay: as above; type: in vivo, Schoenoplectus juncoides (Roxb.) Palla; conditions: 17.5 gae/ha
From the text: (§4) Seeds or nutlets of the desired test plant species were planted in a soil matrix prepared by mixing a sandy loam or loam soil (e.g., 32 percent silt, 23 percent clay, and 45 percent sand, with a pH of about 6.5 and an organic matter content of about 1.9 percent) and calcareous grit in an 80 to 20 ratio. The soil matrix was contained in plastic pots with a volume of 1 quart and a surface area of 83.6 square centimeters (cm^2). When required to ensure good germination and healthy plants, a fungicide treatment and/or other chemical or physical treatment was applied. The plants were grown for 8-22 days in a greenhouse with an approximate 14 hr. photoperiod which was maintained at about 29° C. during the day and 26° C. during the night. Nutrients (Peters Excel® 15-5-15 5-Ca 2-Mg and iron chelate) were applied in the irrigation solution as needed and water was added on a regular basis. Supplemental lighting was provided with overhead metal halide 1000-Watt lamps as necessary. The plants were employed for testing when they reached the first through fourth true leaf stage.
(§5) Treatments consisted of the benzyl ester of 4-amino-3-chloro-5-fluoro-6-(4-chloro-2-fluoro-3-methoxy-phenyl)pyridine-2-carboxylic acid (Compound A), formulated as an SC (suspension concentrate), an ACCase inhibitor, and a third herbicidal component, each applied alone and in ternary combination. Forms of compound A were applied on an acid equivalent basis.
The ACCase inhibitor component was applied on an active ingredient basis and included cyhalofop-R-butyl formulated as Clincher® SF, fenoxaprop-p-ethyl formulated as RiceStar® HT, and profoxydim formulated as Aura® 20EC. Other herbicidal components were applied on an active ingredient or acid equivalent basis depending on the compound and included penoxsulam formulated as Grasp® SC, bentazon sodium formulated as Basagran®, triclopyr […] (TEA) salt formulated as Grandstand® R, bispyribac sodium formulated as Regiment® 80WP, imazamox ammonium formulated as Beyond®, benzobicyclon, quinclorac formulated as Facet® 75DF, glyphosate dimethylammonium (DMA) salt formulated as Durango® DMA, glufosinate ammonium formulated as Ignite® 280, fentrazamide formulated as an emulsifiable concentrate (EC), propyrisulfuron formulated as Zeta One®, and indanofan (technical grade material).
Treatment requirements were calculated based upon the rates being tested, the concentration of active ingredient or acid equivalent in the formulation, and a 12 mL application volume at a rate of 187 L/ha.
For treatments comprised of formulated compounds, measured amounts of compounds were placed individually in 25 mL glass vials and diluted in a volume of 1.25% (v/v) Agri-Dex® crop oil concentrate to obtain 12× stock solutions. […]

ECHOR [3] = assay: as above; type: in vivo, Echinochloa oryzoides (Ard.) Fritsch
Description: as §4, with “When required to ensure good germination and healthy plants, a fungicide treatment and/or other chemical or physical treatment was applied.” left out
as §5
For treatments comprised of formulated compounds, measured amounts of compounds were placed individually in 25 mL glass vials and diluted in a volume of 1.25% (v/v) Agri-Dex® crop oil concentrate to obtain 12× stock solutions. […] Application solutions were prepared by adding an appropriate amount of each stock solution (e.g., 1 mL) and diluted to the appropriate final concentrations with the addition of 9 mL of an aqueous mixture of 1.25% (v/v) crop oil concentrate so that the final spray solutions contained 1.25% (v/v) crop oil concentrate.
As required, additional water and/or 97:3 v/v acetone/DMSO was added to individual application solutions so that the final acetone and DMSO concentrations of the application solutions being compared were 8.1% and 0.25%, respectively.
(§6) All stock solutions and applications solutions were visually inspected for compound compatibility prior to application. Spray solutions were applied to the plant material with an overhead Mandel track sprayer equipped with a 8002E nozzles calibrated to deliver 187 L/ha over an application area of 0.503 m^2 at a spray height of 18 inches (46 cm) above average plant canopy height. Control plants were sprayed in the same manner with the solvent blank.
as §1, §2, §3

CYPRO = assay: Example VI in-water applied ternary mixtures, greenhouse, transplanted paddy rice weeds; type: in vivo, Cyperus rotundus L.
Description: (§7) Weed seeds or nutlets of the desired test plant species were planted in puddled soil (mud) prepared by mixing a shredded, non-sterilized mineral soil (50.5 percent silt, 25.5 percent clay, and 24 percent sand, with a pH of about 7.6 and an organic matter content of about 2.9 percent) and water at a 1:1 volumetric ratio. The prepared mud was dispensed in 365 mL aliquots into 16-ounce (oz.) non-perforated plastic pots with a surface area of 86.59 square centimeters (cm^2) leaving a headspace of 3 centimeters (cm) in each pot. Mud was allowed to dry overnight prior to planting or transplanting. Rice seeds were planted in Sun Gro MetroMix® 306 planting mixture, which typically has a pH of 6.0 to 6.8 and an organic matter content of about 30 percent, in plastic plug trays. Seedlings at the second or third leaf stage of growth were transplanted into 860 mL of mud contained in 32-oz. non-perforated plastic pots with a surface area of 86.59 cm^2 4 days prior to herbicide application. The paddy was created by filling the headspace of the pots with 2.5 to 3 cm of water. When required to ensure good germination and healthy plants, a fungicide treatment and/or other chemical or physical treatment was applied. The plants were grown for 4-22 days in a greenhouse with an approximate 14 hr. photoperiod which was maintained at about 29° C. during the day and 26° C. during the night. Nutrients were added as Osmocote® (19:6:12, N:P:K+minor nutrients) at 2 g per 16-oz. pot and 4 g per 32-oz. pot. Water was added on a regular basis to maintain the paddy flood, and supplemental lighting was provided with overhead metal halide 1000-Watt lamps as necessary. The plants were employed for testing when they reached the first through fourth true leaf stage.
as §5, with “inhibitor herbicide,” for “inhibitor,”
(§8) The ACCase inhibitor component was applied on an active ingredient basis and included cyhalofop-R-butyl formulated as Clincher® G and metamifop formulated as Metamifop EC. Other herbicidal components were applied on an active ingredient or acid equivalent basis depending on the compound and included penoxsulam formulated as Grasp® SC, bentazon sodium formulated as Basagran®, triclopyr […] (TEA) salt formulated as Grandstand® R, benzobicyclon formulated as Benzobicyclon, benfuresate formulated as Full Slot® WG, pyraclonil formulated as Pyraclon® Flowable, mefenacet (technical grade material), and pretilachlor (technical grade material).
(§9) Treatment requirements for each compound or herbicidal component were calculated based upon the rates being tested, the concentration of active ingredient or acid equivalent in the formulation, an application volume of 1 mL per component per pot, and an application area of 86.59 cm^2 per pot.
(§10) For formulated compounds, a measured amount was placed in an individual 100 or 200 mL glass vial and was dissolved in a volume of 1.25% (v/v) Agri-Dex® crop oil concentrate to obtain application solutions.
(§11) For technical grade compounds, a weighed amount was placed in an individual 100 to 200 mL glass vial and was dissolved in a volume of acetone to obtain concentrated stock solutions.
(§12) Applications were made by injecting with a pipetter appropriate amounts of the application solutions, into the aqueous layer of the paddy. Control plants were treated in the same manner with the solvent blank. Applications were made so that all treated plant material received the same concentrations of acetone and crop oil concentrate.
(§13) The treated plants and control plants were placed in a greenhouse as described above and water was added as needed to maintain a paddy flood. […]

IPOHE = assay: Example V (second) postemergence foliar-applied ternary mixtures, greenhouse, direct seeded rice weeds; type: in vivo, Ipomoea hederacea Jacq.; conditions: Penoxsulam 8.75 gai/ha
From the text: as §6, §1, §2, §3

ECHCG [4] = assay: Example VI in-water applied ternary mixtures, greenhouse, transplanted paddy rice weeds; type: in vivo, Echinochloa crus-galli (L.) Beauv.
Summary of the method: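 Compound A (SC, acid-equivalent basis) alone or with cyhalofop-R-butyl or metamifop plus a third herbicide, injected into paddy water of greenhouse-grown transplanted rice and weeds at 1st–4th leaf stage (~29/26 °C). Visual injury scored 0–100% after ~3 weeks vs untreated; expected mixture effects by Colby's equation.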

SCPMA = assay: as above; type: in vivo, Schoenoplectus maritimus (L.) Lye; conditions: 5 gai/ha
Description: as §12
as §1, with “water was added as needed” for “watered by sub-irrigation”, “maintain a paddy flood.” for “prevent wash-off of the test compounds.”, “weeks” for “weeks,”
as §2
The following equation was used to calculate the expected activity of mixtures containing three active ingredients, A. B, and C: Expected=A+B+C−((A×B+A×C+B×C)/100)+(A×B×C/10000)

FIMMI = assay: as above; type: in vivo, Fimbristylis miliacea (L.) Vahl
Description: as §7
as §5, with “inhibitor herbicide,” for “inhibitor,”
as §8, §9, §10, §11, §12, §13

ECHOR [5] = assay: as above; type: in vivo, Echinochloa oryzoides (Ard.) Fritsch
Description: as §7
as §5, with “inhibitor herbicide,” for “inhibitor,”
as §8, §9, §10, §11, §12, §13

SCPJU [6] = assay: as above; type: in vivo, Schoenoplectus juncoides (Roxb.) Palla; conditions: 17.5 gai/ha
Description: as §7
as §5, with “inhibitor herbicide,” for “inhibitor,”
The ACCase inhibitor component was applied on an active ingredient basis and included cyhalofop-R-butyl formulated as Clincher® G and metamifop formulated as Metamifop EC. […]
as §9
For formulated compounds, a measured amount was placed in an individual 100 or 200 mL glass vial and was dissolved in a volume of 1.25% (v/v) Agri-Dex® crop oil concentrate to obtain application solutions. […]

## CCN(CC)CC.O=C(O)COc1nc(Cl)c(Cl)cc1Cl [Triclopyr TEA Salt]
ECHCO
  Visual Weed Control (%) - 21 DAA ECHCO Obs: 3%
CYPIR; 17.5 gae/ha
  Visual Weed Control (%) - 21 DAA CYPIR Obs: 0%
ECHCG [1]
  Visual Weed Control (%) - 21 DAA ECHCG Obs: 0%
SCPJU [2]
  Visual Weed Control (%) - 21 DAA SCPJU Obs: 43%

## COc1cnc(OC)n2nc(NS(=O)(=O)c3c(OCC(F)F)cccc3C(F)(F)F)nc12 [Penoxsulam]
CYPIR; 4.38 gai/ha
  Visual Weed Control (%) - 22 DAA CYPIR Obs: 50%
ECHOR [3]; 4.38 gai/ha
  Visual Weed Control (%) - 22 DAA ECHOR Obs: 45%
ECHOR [3]; 8.75 gai/ha
  Visual Weed Control (%) - 22 DAA ECHOR Obs: 53%
CYPRO; 1.25 gai/ha
  Visual Weed Control (%) - 21 DAA CYPRO Obs: 0%
CYPRO; 2.5 gai/ha
  Visual Weed Control (%) - 24 DAA CYPRO Obs: 0%
CYPRO; 5 gai/ha
  Visual Weed Control (%) - 24 DAA CYPRO Obs: 0%
IPOHE
  Visual Weed Control (%) - 21 DAA IPOHE Obs: 48%
ECHCG [4]; 1.25 gai/ha, first sub-table
  Visual Weed Control (%) - 21 DAA ECHCG Obs: 17%
ECHCG [4]; 2.5 gai/ha, second sub-table
  Visual Weed Control (%) - 21 DAA ECHCG Obs: 55%
SCPMA
  Visual Weed Control (%) - 24 DAA SCPMA Obs: 30%
FIMMI; 1.25 gai/ha
  Visual Weed Control (%) - 21 DAA FIMMI Obs: 33%
FIMMI; 2.5 gai/ha
  Visual Weed Control (%) - 24 DAA FIMMI Obs: 60%
ECHOR [5]; Table 71, 5 gai/ha
  Visual Weed Control (%) - 24 DAA ECHOR Obs: 65%
ECHOR [5]; Table 71, 10 gai/ha
  Visual Weed Control (%) - 24 DAA ECHOR Obs: 93%

## CCN(CC)CC.O=C(O)COc1nc(Cl)c(Cl)cc1Cl [Triclopyr TEA]
SCPJU [6]
  Visual Weed Control (%) - 21 DAA SCPJU Obs: 8%
ECHCG [4]; 17.5 gai/ha, first set
  Visual Weed Control (%) - 21 DAA ECHCG Obs: 0%
ECHCG [4]; 35 gai/ha, second set
  Visual Weed Control (%) - 21 DAA ECHCG Obs: 0%
